Assay: Metabolic stability in human liver S9 fractions
Assay type: in vitro ADME
Details: for % Δ of % parent remaining (relative to S): relative to Pagoclone (S); for % Δ of % parent remaining (relative to racemic): relative to Pagoclone (racemic)
Protocol: Materials: Human liver S9 (20 mg/mL) were obtained from Xenotech, LLC (Lenexa, Kans.). (3-nicotinamide adenine dinucleotide phosphate, reduced form (NADPH), magnesium chloride (MgCl2), and dimethyl sulfoxide (DMSO) were purchased from Sigma-Aldrich.
Determination of Metabolic Stability: 10 mM stock solutions of test compounds were prepared in DMSO. The 10 mM stock solutions were diluted to 0.1 mM or 1.0 mM in acetonitrile (ACN). The 20 mg/mL human liver […] were diluted to 2.5 mg/mL in 0.1 M potassium phosphate buffer, pH 7.4, containing 3 mM MgCl2 and incubated with alamethicin at 10 μg/mL for 15 minutes on ice. The diluted S9 were added to wells of a 96-well deep-well polypropylene plate in triplicate. 15 μL of the 0.1 mM or 1.0 mM test compound was added to the S9 and the mixture was pre-warmed for 10 minutes. Reactions were initiated by addition of pre-warmed NADPH solution. […] The reaction mixtures were incubated at 37° C., and 50 μL aliquots were removed at 0 and 60 minutes and added to shallow-well 96-well plates which contained 50 μL of ice-cold ACN with internal standard to stop the reactions. The plates were stored at 4° C. for 20 minutes after which 100 μL of water was added to the wells of the plate before centrifugation to pellet precipitated proteins. Supernatants were transferred to another 96-well plate and analyzed for amounts of parent remaining by LC-MS/MS using an Applied Bio-systems API 4000 mass spectrometer.
Data analysis: The in vitro tu2s for test compounds were calculated from the slopes of the linear regression of % parent remaining (1n) vs incubation time relationship.
k=−[slope of linear regression of % parent remaining(ln) vs incubation time]
Data analysis was performed using Microsoft Excel Software.

[1] = human liver S9 fractions, 1 μM tested compound
[2] = human liver S9 fractions, 10 μM tested compound

Structure (SMILES)	% Parent remaining at 1 hr [1]	% Parent remaining at 1 hr [2]	% Δ of % parent remaining (relative to S) (1 μM tested compound)	% Δ of % parent remaining (relative to racemic) (1 μM tested compound)	% Δ of % parent remaining (relative to S) (10 μM tested compound)	% Δ of % parent remaining (relative to racemic) (10 μM tested compound)	metabolic stability compared to pagoclone and (S)-pagoclone (human liver S9 fractions, summary in words)
CC(C)CCC(=O)CC1c2ccccc2C(=O)N1c1ccc2ccc(Cl)nc2n1 (racemic) [Pagoclone (racemic), 2-(7-chloro-1,8-naphthyridin-2-yl)-3-(5-methyl-2-oxohexyl)isoindolin-1-one, reference compound]	37 ± 3.8%	11 ± 1.2%	–	–	–	–	–
CC(C)CCC(=O)CC1c2ccccc2C(=O)N1c1ccc2ccc(Cl)nc2n1 [Pagoclone (S), 2-(7-chloro-1,8-naphthyridin-2-yl)-3-(5-methyl-2-oxohexyl)isoindolin-1-one, reference compound]	41 ± 1.0%	23 ± 3.9%	–	–	–	–	–
[2H]C([2H])(C(=O)C([2H])([2H])C([2H])([2H])C([2H])(C([2H])([2H])[2H])C([2H])([2H])[2H])C1c2ccccc2C(=O)N1c1ccc2ccc(Cl)nc2n1 (racemic) [Rac-141, (+/−)-2-(7-Chloro-1,8-naphthyridin-2-yl)-3-(5-(d3-methyl)-2-oxo-1,1,3,3,4,4,5,6,6,6-d10-hexyl)isoindolin-1-one]	60 ± 8.4%	37 ± 2.7%	46%	62%	61%	236%	substantially greater metabolic stability
